Data from patent US11963971B2, “Combination decitabine and cedazuridine solid oral dosage forms” (Otsuka Pharmaceutical Co., Ltd., priority 2020, dated 2024).
Marks after values point to notes of the source that are not given here.

Key:
[1] = ASTX727 Phase 1 dose escalation study: plasma decitabine pharmacokinetics (AUC); type: in vivo, human; conditions: for AUC(0-t): human, plasma
Method: The ASTX727 Phase 1 study was a dose escalation designed to establish the recommended doses of cedazuridine and decitabine likely to achieve AUC equivalence with standard dose decitabine IV (decitabine 20 mg/m^2 IV). FIG. 1 provides an overview of the study design. In Cycle 1, each patient received a cohort-defined dose of oral decitabine on day −3, a 1-h intravenous infusion of decitabine 20 mg/m^2 on day 1, and cohort-defined doses of oral decitabine plus cedazuridine on days 2-5. In Cycles 2 and beyond, the oral decitabine and cedazuridine were given on days 1-5. The dose of cedazuridine was escalated first and decitabine was escalated once CDA inhibition by cedazuridine approached the maximum effect. Only one drug was escalated per cohort. Fixed doses were given without adjustment for bodyweight or body surface area. Days −3, 1, 2, and 5 for decitabine included a full-day pharmacokinetic analysis. The starting dose was 20 mg for oral decitabine and 40 mg for cedazuridine (a human equivalent dose with approximately 100 times greater safety margin than the no-observed adverse effect level in cynomolgus monkeys). […] Dose-limiting toxicity was defined as a grade 4 hematologic toxicity or grade 3 lasting more than 14 days and unrelated to the underlying disease. […] Dose escalation for patients who previously received a lower dose was allowed at the discretion of the investigator if the patient had tolerated the originally assigned doses.
The pharmacokinetic profile of decitabine was characterized through analysis of plasma treated with EDTA (edetic acid) by validated liquid chromatography-tandem mass spectrometry, with tetrahydrouridine (Santa Cruz Biotechnology, Dallas, TX) for stabilization and with a linear assay range of 0.5-100 ng/mL for decitabine. Serial plasma samples (from before dose administration until 24 h after administration) were collected on days −3, 1, 2, and 5 (also immediately before dose administration on days 3 and 4) during the first cycle. Specifically, pharmacokinetic samples were obtained before dose administration and 0.25 h, 0.5 h, 1.0 h (for IV only 1.083 h), 1.5 h, 2 h, 3 h, 4 h, 6 h, 8 h, and 24 h after the dose.

[2] = ASTX727 Phase 2 randomized cross over dose confirmation: plasma decitabine 5-day AUC, oral vs IV; type: in vivo; conditions: human, read-out: Decitabine 5-day AUC0-t, IV Geo. LSM
MDS and CMML patients = assay: Phase 2 safety: related adverse events Grade ≥3 in ≥5% of patients; type: in vivo, human; conditions: Phase 2, Cycle 1 or 2; IV DEC N = 75, ASTX727 N = 78
Method: The ASTX727 Phase 2 study was a randomized cross over design of decitabine 20 mg/m^2 IV daily (for 5 days) vs. oral decitabine/cedazuridine once daily (for 5 days) in Cycle 1 with patients crossing over to the other drug in Cycle 2 (See FIG. 3). From Cycle 3 onward, all patients continued on oral decitabine/cedazuridine once daily (for 5 days), each cycle every 28 days, until progression.
Changes in DNA methylation after treatment were expressed as relative change (%), calculated as: 100×([methylation on a given post-treatment day]−[baseline methylation]. Adverse event assessments through physical examinations and laboratory monitoring (haematology, metabolic profile, and liver enzymes) were done before treatment on day 1 of each cycle (weekly for haematology in the first two cycles). While on treatment, patients were assessed for adverse events and clinical response, including haematology, metabolic profile, liver enzymes, directed physical examinations, vital signs, transfusion records, and dosing records. Once off treatment, patients were followed up for survival and transformation to acute myeloid leukemia. Dose reduction or delays were permitted at the investigators' discretion to allow for recovery from drug-related myelosuppression.

[3] = Phase 3 randomized cross over study: 5-day decitabine AUC equivalence, oral ASTX727 vs IV decitabine; type: in vivo; conditions: human, plasma, 20 mg/m2; Phase 3 primary analysis, paired population N=123; IV decitabine 20 mg/m^2; read-out: Decitabine 5-day AUC0-24, IV DEC Geo. LSM
Excerpt: The Primary Endpoint PK Analysis Set is used to calculate decitabine 5-day cumulative AUC0-t exposures after administration of the solid dosage form. The following assumptions are used: • 1) Steady state is reached on Day 2 of dosing with the solid dosage form; • 2) Based on steady state achievement on Day 2, decitabine AUC0-t from Day 2 and Day 5 is representative of daily AUC0-t on Days 2 through Day 5 in a putative 5-day dosing with the solid dosage form.
Therefore, to calculate total 5-day oral decitabine AUC0-t exposures using PK data from 3 days sequential PK sampling, Day 1 AUC0-t (first solid dosage form dose) is added to (Day 2 AUC0-t+Day 5 AUC0-t)×2. If AUC0-t on Day 2 is not available, it is replaced by AUC0-t on Day 5; the converse is also true.
If AUC0-t on Day 1 is not available, it is replaced by AUC0-t on Day 5; the converse is also true. Note that t=24 hrs, so AUC0-t is AUC0-24.
Phase 3 was a randomized cross over design where MDS and CMML patients eligible to receive decitabine were randomized to Sequence A where they received ASTX727 in Cycle 1 then IV decitabine in Cycle 2, or Sequence B with the reverse order. All patients received ASTX727 from Cycle 3 onwards to assess long term efficacy and safety. 118 evaluable patients were needed to show AUC equivalence between oral and IV administrations. […]

Nc1ncn([C@H]2C[C@H](O)[C@@H](CO)O2)c(=O)n1 [IV DEC, 5-aza-2′-deoxycytidine]
5-days Total AUC0-t, IV (N = 41), geometric mean ([1]; IV decitabine 20 mg/m^2, total IV population of all cohorts (N = 41)): 821^d h · ng/ml
AUC(0-t) ([1]; iv, 20 mg/m2, Cohort 1, N=5 (extreme outlier excluded), IV decitabine 20 mg/m^2, day 1, read-out: AUC0-t by day, IV D1, Geometric Mean (gCV %)): 138 ng·h/mL
AUC(0-t) ([1]; iv, 20 mg/m2, Cohort 2, N=6, IV decitabine 20 mg/m^2, day 1, read-out: AUC0-t by day, IV D1, Geometric Mean (gCV %)): 170 ng·h/mL
AUC(0-t) ([1]; iv, 20 mg/m2, Cohort 3, N=6, IV decitabine 20 mg/m^2, day 1, read-out: AUC0-t by day, IV D1, Geometric Mean (gCV %)): 192 ng·h/mL
AUC(0-t) ([1]; iv, 20 mg/m2, Cohort 4, N=6, IV decitabine 20 mg/m^2, day 1, read-out: AUC0-t by day, IV D1, Geometric Mean (gCV %)): 153 ng·h/mL
AUC(0-t) ([1]; iv, 20 mg/m2, Cohort 5, IV decitabine 20 mg/m^2, day 1, IV data from 18 patients (one extreme outlier excluded), read-out: AUC0-t by day, IV D1, Geometric Mean (gCV %)): 166 ng·h/mL
AUC(0-t) ([1]; iv, 20 mg/m^2, Cohort 1, N=6, IV decitabine 20 mg/m^2 1-h infusion, day 1, read-out: AUC0-t by day, IV D1, Geometric Mean (gCV %)): 159 ng·h/mL
AUC(0-t) ([1]; po, 20 mg, Cohort 1, N=5 (extreme outlier excluded), oral DEC 20 mg alone, day −3, read-out: AUC0-t by day, D −3 (DEC alone), Geometric Mean (gCV %)): 7.9 ng·h/mL
AUC(0-t) ([1]; po, 20 mg, Cohort 1, N=6, oral DEC 20 mg alone, day −3, plasma decitabine, read-out: AUC0-t by day, D −3 (DEC alone), Geometric Mean (gCV %)): 10.7 ng·h/mL
AUC(0-t) ([1]; po, 20 mg, Cohort 2, N=6, oral DEC 20 mg alone, day −3, read-out: AUC0-t by day, D −3 (DEC alone), Geometric Mean (gCV %)): 7.49 ng·h/mL
AUC(0-t) ([1]; po, 20 mg, Cohort 3, N=6, oral DEC 20 mg alone, day −3, read-out: AUC0-t by day, D −3 (DEC alone), Geometric Mean (gCV %)): 7.9 ng·h/mL
AUC(0-t) ([1]; po, 30 mg, Cohort 5, N=19, oral DEC 30 mg alone, day −3, read-out: AUC0-t by day, D −3 (DEC alone), Geometric Mean (gCV %)): 15.3 ng·h/mL
AUC(0-t) ([1]; po, 40 mg, Cohort 4, N=6, oral DEC 40 mg alone, day −3, read-out: AUC0-t by day, D −3 (DEC alone), Geometric Mean (gCV %)): 29.8 ng·h/mL
AUC(0-t) ([2]; 20 mg/m^2, Phase 2 FDC tablet stage, N=24, 20 mg/m^2 IV infusion (1 h) of decitabine): 745 ng·h/mL
AUC(0-t) ([2]; 20 mg/m^2, Phase 2 capsule stage, N=40, 20 mg/m^2 IV infusion (1 h) of decitabine): 803 ng·h/mL
Anemia, related AE Grade ≥3 (MDS and CMML patients): 4 (5.3%) n (%)
Any Grade ≥3 Related AEs (MDS and CMML patients): 24 (32%) n (%)
Febrile Neutropenia, related AE Grade ≥3 (MDS and CMML patients): 4 (5.3%) n (%)
Leukopenia, related AE Grade ≥3 (MDS and CMML patients): 6 (8.0%) n (%)
Neutropenia, related AE Grade ≥3 (MDS and CMML patients): 16 (21.3%) n (%)
Thrombocytopenia, related AE Grade ≥3 (MDS and CMML patients): 11 (14.7%) n (%)
AUC(0-t) [3]: 865 ng·h/mL
